One assay has as its target T1, hEP2/Gqs5 (Homo sapiens, UniProt P43116).
T1 construct: expressed in transfected cells; host or cells: HEK-293(EBNA)
As to the kind of experiment: FLIPR calcium signal, HEK-293(EBNA) cells expressing hEP2/Gqs5. Format: cell-based. Conditions: value outside parentheses, read-out: Ca2+ Signal-EC50(nM) EP2. How it is done: (§1) HEK-293(EBNA) cells, stably expressing one type or subtype of recombinant human prostaglandin receptors (prostaglandin receptors expressed: hDP/Gqs5; hEP1; hEP2/Gqs5; hEP3A/Gqi5; hEP4/Gqs5; hFP; hIP; hTP), were cultured in 100 mm culture dishes in high-glucose DMEM medium containing 10% fetal bovine serum, 2 mM l-glutamine, 250 µg/ml geneticin (G418) and 200 μg/ml hygromycin B as selection markers, and 100 units/ml penicillin G, 100 µg/ml streptomycin and 0.25 μg/ml amphotericin B.
(§2) Cells were seeded at a density of 5×10^4 cells per well in Biocoat® Poly-D-lysine-coated black-wall, clear-bottom 96-well plates (Becton-Dickinson) and allowed to attach overnight in an incubator at 37° C. Cells were then washed two times with HBSS-HEPES buffer (Hanks Balanced Salt Solution without bicarbonate and phenol red, 20 mM HEPES, pH 7.4) using a Denley Cellwash plate washer (Labsystems). After 45 minutes of dye-loading in the dark, using the calcium-sensitive dye Fluo-4 […] at a final concentration of 2 μM, plates were washed four times with HBSS-HEPES buffer to remove excess dye leaving 100 μl in each well. Plates were re-equilibrated to 37° C. for a few minutes.
(§3) Cells were excited with an Argon laser at 488 nm, and emission was measured through a 510-570 nm bandwidth emission filter (FLIPR™, Molecular Devices, Sunnyvale, Calif.). Drug solution was added in a 50 µl volume to each well to give the desired final concentration. The peak increase in fluorescence intensity was recorded for each well. On each plate, four wells each served as negative (HBSS-HEPES buffer) and positive controls (standard agonists: BW245C (hDP); PGE2 (hEP1; hEP2/Gqs5; hEP3A/Gqi5; hEP4/Gqs5); PGF2α (hFP); carbacyclin (hIP); U-46619 (hTP), depending on receptor). The peak fluorescence change in each drug-containing well was then expressed relative to the controls.
(§4) Compounds were tested in a high-throughput (HTS) or concentration-response (CoRe) format. In the HTS format, forty-four compounds per plate were examined in duplicates at a concentration of 10^−5 M. To generate concentration-response curves, four compounds per plate were tested in duplicates in a concentration range between 10^−5 and 10^−11 M. The duplicate values were averaged. In either, HTS or CoRe format each compound was tested on at least 3 separate plates using cells from different passages to give an n≧3.

Another assay has as its target T2, hTP (Homo sapiens, UniProt P21731).
T2 construct: expressed in transfected cells; host or cells: HEK-293(EBNA)
T2 sequence (P21731 1-343): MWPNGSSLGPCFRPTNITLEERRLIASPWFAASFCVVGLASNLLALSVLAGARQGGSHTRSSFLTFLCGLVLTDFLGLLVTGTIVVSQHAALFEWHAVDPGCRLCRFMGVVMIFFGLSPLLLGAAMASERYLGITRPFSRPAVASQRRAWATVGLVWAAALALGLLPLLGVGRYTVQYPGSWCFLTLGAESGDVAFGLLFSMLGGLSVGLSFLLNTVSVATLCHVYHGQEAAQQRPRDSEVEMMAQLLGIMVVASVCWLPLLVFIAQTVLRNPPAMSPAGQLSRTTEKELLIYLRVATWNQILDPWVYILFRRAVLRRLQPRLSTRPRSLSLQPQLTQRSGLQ
As to the kind of experiment: FLIPR calcium signal, HEK-293(EBNA) cells expressing hTP. Format: cell-based. How it is done: as §1, §2, §3, §4

The target in another assay is T3, EP4 receptors (Homo sapiens, UniProt P35408).
T3 construct: expressed in transfected cells; host or cells: HEK-293
In words: Radioligand binding, [3H]PGE2, HEK-293 cells stably expressing EP4 receptors. Conditions: [3H]PGE2 competition. How it is done:
(§5) HEK-293 cells stably expressing the human or feline FP receptor, or EP1, EP2, or EP4 receptors were washed with TME buffer, scraped from the bottom of the flasks, and homogenized for 30 sec using a Brinkman PT 10/35 polytron. TME buffer was added to achieve a final 40 ml volume in the centrifuge tubes (the composition of TME is 100 mM TRIS base, 20 mM MgCl2, […]; 10N HCl is added to achieve a pH of 7.4).
(§6) The cell homogenate was centrifuged at 19000 r.p.m. for 20 min at 4° C. using a Beckman Ti-60 rotor. The resultant pellet was resuspended in TME buffer to give a final 1 mg/ml protein concentration, as determined by Biorad assay. Radioligand binding competition assays vs. [^3H-]17-phenyl PGF2α (5 nM) were performed in a 100 μl volume for 60 min. Binding reactions were started by adding plasma membrane fraction. The reaction was terminated by the addition of 4 ml ice-cold TRIS-HCl buffer and rapid filtration through glass fiber GF/B filters using a Brandel cell harvester. The filters were washed 3 times with ice-cold buffer and oven dried for one hour.
(§7) [^3H-]PGE2 (specific activity 180 Ci mmol) was used as the radioligand for EP receptors. [^3H]17-phenyl PGF2α was employed for FP receptor binding studies. Binding studies employing EP1, EP2, EP4 and FP receptors were performed in duplicate in at least three separate experiments. A 200 μl assay volume was used. Incubations were for 60 min at 25° C. and were terminated by the addition of 4 ml of ice-cold 50 mM TRIS-HCl, followed by rapid filtration through Whatman GF/B filters and three additional 4 ml washes in a cell harvester (Brandel). Competition studies were performed using a final concentration of 5 nM [^3H]-PGE2, or 5 nM [^3H] 17-phenyl PGF2α and non-specific binding determined with 10^−5M of unlabeled PGE2, or 17-phenyl PGF2α, according to receptor subtype studied.

Another assay has as its target T4, hEP4/Gqs5 (Homo sapiens, UniProt P35408).
T4 construct: expressed in transfected cells; host or cells: HEK-293(EBNA)
As to the kind of experiment: FLIPR calcium signal, HEK-293(EBNA) cells expressing hEP4/Gqs5. Format: cell-based. The following applies: for EC50: read-out: Ca2+ Signal-EC50(nM) EP4. How it is done:
as §1, §2, §3, §4

The target in a further assay is EP2 (Homo sapiens, UniProt P43116). As to the kind of experiment: Competition binding, [3H]PGE2, HEK 293 cells stably expressing human EP2 receptors. Conditions: [3H]PGE2 competition. Set-up: expressed in transfected cells; host or cells: HEK 293. How it is done:
Competition binding experiments were performed in a medium containing Hank's balanced salt solution, Hepes 20 mM, pH 7.3, membranes (˜60 μg protein) or 2×10^5 cells from HEK 293 cells stably expressing human EP2 receptors, [^3H]PGE2 (10 nM) and various concentrations of test compounds in a total volume of 300 μl. Reaction mixtures were incubated at 23° C. for 60 min, and were filtered over Whatman GF/B filters under vacuum. Filters were washed three times with 5 ml ice-cold buffer containing 50 mM Tris/HCl (pH 7.3). Non-specific binding was estimated in the presence of excess unlabeled PGE2 (10 μM). Binding data fitted to the binding model for a single class of binding sites, using nonlinear regression analysis. IC50 values thus obtained were converted to Ki using the equation of Ki=(IC50/(1+[L]/KD) where [L] represents PGE2 concentration (10 nM) and KD the dissociation constant for [3H]PGE2 at human EP2 receptors (40 nM).
as §5, §6, §7

The target in a further assay is T5, hIP (Homo sapiens, UniProt P43119).
T5 construct: expressed in transfected cells; host or cells: HEK-293(EBNA)
As to the kind of experiment: FLIPR calcium signal, HEK-293(EBNA) cells expressing hIP. Format: cell-based. How it is done:
as §1, §2, §3, §4

T1 sequence (P43116 whole entry): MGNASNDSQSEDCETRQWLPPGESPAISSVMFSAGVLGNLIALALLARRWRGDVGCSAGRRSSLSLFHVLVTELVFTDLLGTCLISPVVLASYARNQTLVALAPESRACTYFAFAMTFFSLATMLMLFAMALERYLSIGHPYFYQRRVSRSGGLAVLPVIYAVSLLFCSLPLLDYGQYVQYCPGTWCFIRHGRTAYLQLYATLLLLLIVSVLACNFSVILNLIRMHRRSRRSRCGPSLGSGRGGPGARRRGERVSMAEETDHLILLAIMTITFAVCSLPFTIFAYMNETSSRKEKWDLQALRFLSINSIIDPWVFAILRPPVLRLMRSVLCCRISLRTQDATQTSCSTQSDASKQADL
Sequence of EP2 (P43116 whole entry): as above
T5 sequence (P43119 whole entry): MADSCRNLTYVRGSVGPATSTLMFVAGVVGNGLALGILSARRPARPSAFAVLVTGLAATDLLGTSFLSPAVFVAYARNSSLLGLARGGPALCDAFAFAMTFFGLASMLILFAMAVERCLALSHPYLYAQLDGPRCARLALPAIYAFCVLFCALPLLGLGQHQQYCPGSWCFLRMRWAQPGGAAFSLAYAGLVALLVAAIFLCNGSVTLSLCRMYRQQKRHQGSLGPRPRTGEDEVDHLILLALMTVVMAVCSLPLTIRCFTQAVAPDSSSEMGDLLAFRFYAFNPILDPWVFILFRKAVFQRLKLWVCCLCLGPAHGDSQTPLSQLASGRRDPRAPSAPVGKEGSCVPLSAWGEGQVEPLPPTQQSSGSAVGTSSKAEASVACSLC
T3 sequence (P35408 whole entry): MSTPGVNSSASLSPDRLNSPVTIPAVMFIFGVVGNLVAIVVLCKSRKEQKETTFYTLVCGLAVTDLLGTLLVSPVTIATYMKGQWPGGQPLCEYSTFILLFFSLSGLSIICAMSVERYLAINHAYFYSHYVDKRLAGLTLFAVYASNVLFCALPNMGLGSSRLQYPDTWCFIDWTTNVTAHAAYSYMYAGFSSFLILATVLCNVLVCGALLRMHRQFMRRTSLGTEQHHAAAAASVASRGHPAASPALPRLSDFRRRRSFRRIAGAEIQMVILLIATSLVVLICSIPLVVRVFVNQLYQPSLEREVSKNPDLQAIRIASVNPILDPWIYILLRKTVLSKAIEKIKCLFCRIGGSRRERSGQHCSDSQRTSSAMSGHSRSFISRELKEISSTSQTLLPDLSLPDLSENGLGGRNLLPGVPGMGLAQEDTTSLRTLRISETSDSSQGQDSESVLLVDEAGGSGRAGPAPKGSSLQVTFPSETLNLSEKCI
T4 sequence (P35408 whole entry): as above

As a reminder, the EC50 is the midpoint of the concentration-response curve. As usually defined, the Ki is the equilibrium dissociation constant of an inhibitor or competing ligand from its target. Low readings indicate higher affinity, high ones lower affinity. Regarding `CCCCCC(O)c1ccc([C@@H]2[C@@H](C/C=C\CCCC(=O)O)CC[C@H]2Cl)cc1` (some centres unmarked) [compound 6], the 50% effective concentration (EC50) at hEP2/Gqs5 came to 731 nM. Besides, on hTP, the “Ca2+ Signal-EC50(nM) TP” value is listed as “notactive”. In addition, the Ki on EP4 receptors came to 1030 nM; on EP2 it was 401 nM. For the same compound, the “Ca2+ Signal-EC50(nM) EP4” value on hEP4/Gqs5 is listed as “notactive”. At hIP, the “Ca2+ Signal-EC50(nM) IP” value is reported as “notactive”.

`CCCCCC(O)c1ccc([C@H]2C(=O)C=C[C@@H]2CCCc2ccc(C(=O)O)s2)cc1` (some centres unmarked) [compound 11]: the figures for the 50% effective concentration (EC50) at hEP2/Gqs5 and on hEP4/Gqs5 were 208 nM and over 10000 nM, respectively. For the same compound, on hTP, the “Ca2+ Signal-EC50(nM) TP” value is “notactive”. Further, the values for the inhibition constant (Ki) at EP4 receptors and at EP2 were 1940 nM and 173 nM, respectively. The “Ca2+ Signal-EC50(nM) IP” value on hIP was “notactive”.

As for `CCCCCC(O)c1ccc([C@H]2C(=O)CC[C@@H]2C/C=C\CCCC(=O)O)cc1` (some centres unmarked) [compound 5], the EC50 at hEP2/Gqs5 amounted to 381 nM. Moreover, on hTP, the “Ca2+ Signal-EC50(nM) TP” value is recorded as “notactive”. In addition, the Ki on EP4 receptors worked out at 4210 nM; on EP2, 1050 nM. At hEP4/Gqs5, the “Ca2+ Signal-EC50(nM) EP4” value is reported as “notactive”. Besides, the “Ca2+ Signal-EC50(nM) IP” value at hIP is recorded as “notactive”.

As to `CCCCCC(O)c1ccc([C@H]2C(=O)CC[C@@H]2CCCc2ccc(C(=O)O)s2)cc1` (some centres unmarked) [compound 1], the EC50 is 62 nM on hEP2/Gqs5 and over 10000 nM at hEP4/Gqs5. For the same compound, on hTP, the “Ca2+ Signal-EC50(nM) TP” value is reported as “notactive”. On EP2, this compound displayed a Ki of 43 nM. The “Ca2+ Signal-EC50(nM) IP” value at hIP is on record as “notactive”.

Consider `CCCCCC(O)c1ccc([C@H]2C(=O)CC[C@@H]2CCCc2ccc(C(=O)O)s2)cc1` (some centres unmarked) [compound 2], for which the EC50 on hEP2/Gqs5 is 25 nM. For the same compound, at hTP, the “Ca2+ Signal-EC50(nM) TP” value is “notactive”. Besides, the “Ca2+ Signal-EC50(nM) EP4” value on hEP4/Gqs5 was “notactive”. Further, the affinity at EP2 corresponds to a Ki of 70 nM. Further, the “Ca2+ Signal-EC50(nM) IP” value on hIP was “notactive”.

Consider `CCCCCC(O)c1ccc([C@@H]2[C@@H](CCCc3ccc(C(=O)O)s3)CCC2(Cl)Cl)cc1` (some centres unmarked) [compound 3], for which, at hEP2/Gqs5, the EC50 was found to be 1620 nM. The “Ca2+ Signal-EC50(nM) TP” value at hTP is given as “notactive”. The “Ca2+ Signal-EC50(nM) EP4” value at hEP4/Gqs5 is “notactive”. At EP2, this compound showed an inhibition constant (Ki) of 89 nM. For the same compound, the “Ca2+ Signal-EC50(nM) IP” value at hIP is “notactive”.

Turning to `CCCCCC(O)c1ccc([C@@H]2[C@@H](C/C=C\CCCC(=O)O)CC[C@H]2O)cc1` (some centres unmarked) [compound 7], the EC50 was 2510 nM on hEP2/Gqs5 and over 10000 nM on hEP4/Gqs5. For the same compound, the “Ca2+ Signal-EC50(nM) TP” value at hTP was “notactive”. Moreover, the Ki on EP2 came out at 2310 nM. Besides, the “Ca2+ Signal-EC50(nM) IP” value on hIP is recorded as “notactive”.

The record behind these values is US7439372B2, “Therapeutic compounds” (Allergan, Inc., priority 2006, dated 2008).
